Legend:
[1] = test system: 70S ribosomes from E. coli (23S rRNA); assay: Crosslinking of CAM dimers to ribosomes upon 365 nm irradiation; assay type: binding; conditions: R*I complex, 365 nm light for 30 min, compound at 10×K i
Description: Specifically, a mixture of E. coli ribosomes together with either 4 or 5, each added to the incubation mixture at concentration equal to 10×K i, were irradiated for 30 min with 365 nm light. Following purification, the irradiation products were analyzed by primer extension. […] In contrast, compound 4 crosslinked to C2611, without raising any modification signal in the A2058-A2059 region. It should be mentioned that the concentrations used for compounds 4 and 5 in this series of experiments were much lower (<60 μM) than those of CAM utilized previously by Long & Porse. […]
Fig 5 CAM dimer crosslinking at the entrance to the exit tunnel, upon UV-irradiation. […] The irradiation products were analyzed by probing with DMS (panels A and B) or CMCT (panel C) and primer extension, before (lanes 3 and 6) or after discharging from excess CAM dimer (lanes 2 and 5). […]
Following formation of R*I complexes, the samples were irradiated at 365 nm, for 30 min, in a Vilber Lourmat UV Cabinet (VL-215.LC-30W) light source. […] Half of the sample was probed with DMS or CMCT, and then analyzed by primer extension as shown above, while the other half was extracted with phenol, phenol-chloroform (1:1), and chloroform, followed by ethanol precipitation to remove non-crosslinked agents. […]

[2] = test system: human peripheral blood cells; assay: Toxicity assays in human peripheral blood cells; assay type: cell-based
Description: Fig 7 Toxicity assays in human peripheral blood cells. Peripheral blood was collected in EDTA-coated tubes from 5 healthy volunteers (age range: 25–30 years). Concentration was adjusted to 1.8×10^9 cells/L using RPMI-1640 medium containing 1% penicillin/streptomycin. Cells were cultured in triplicate in the presence or the absence of 30 or 60 μM CAM or compound 5, under a humidified 5% CO2 atmosphere for 5 days, at 37°C. Cultures were counted daily by a CELL-DYN 3700 Hematology Analyzer and values were expressed as a percentage of cells measured in controls.
Peripheral blood was collected in EDTA-coated tubes from 5 healthy volunteers (age range: 25–30 years). Cell concentration was adjusted to 5×10^8 cells/l using RPMI-1640 medium (GIBCO BRL) containing 1% penicillin/streptomycin. Cells were cultured in triplicate under a humidified 5% CO2 atmosphere for 5 days, at 37°C, in the absence (control cultures) or the presence of CAM or CAM dimers. Counting of cells was performed daily in a CELL-DYN 3700 Hematology Analyzer (Abbott, USA) and values were expressed as a percentage of cells measured in control cultures.

HS-Sultan cells = assay: Toxicity assay in leukemic cell line (cell counting); assay type: cell-based, Human; conditions: daily cell counting
Description: (§1) Human leukemic cell lines, HS-Sultan (Burkitt’s lymphoma), Jurkat (T-cell acute lymphoblastic leukemia), and U937 (histiocytic lymphoma), were adjusted to 1×10^9 cells/l in RPMI-1640 medium supplemented with 10% fetal bovine serum and 1% penicillin/streptomycin. The cells were grown in triplicate in the absence (control cultures) or presence of CAM or CAM dimers for 4 days at 37°C, under a humidified 5% CO2 atmosphere. The medium was changed daily; CAM or CAM dimer addition was repeated after medium change. Aliquots were collected daily and counted in a CELL-DYN 3700 Hematology Analyzer. For cell necrosis and apoptosis assays, samples (10^6 cells) were collected and determined using the Annexin V-PE Apoptosis Detection Kit I (BD Pharmingen) for flow cytometry, according to the manufacturers’ instructions. Flow cytometry data were analyzed using the FlowJo flow cytometry analysis software. Necrotic and apoptotic cells were expressed as a percentage of total cells.
(§2) S4 Fig. Toxicity assays in Human leukemic cell lines. HS-Sultan, Jurkat, and U937 cell lines were adjusted to […] in RPMI-1640 medium containing 1% Penicillin/Streptomycin and 10% fetal bovine serum. […] Aliquots were collected daily and counted in a CELL-DYN 3700 Hematology Analyzer.

U937 cells = assay: as above; assay type: cell-based, Human; conditions: daily cell counting
Description: as §1, §2

Which results are given for `O=C(N[C@H](CO)[C@H](O)c1ccc([N+](=O)[O-])cc1)c1ccc(C(=O)N[C@H](CO)[C@H](O)c2ccc([N+](=O)[O-])cc2)cc1` [Compound 5, N^1,N^4-Bis ((1R,2R)-1,3-dihydroxy-1-(4-nitrophenyl)propan-2-yl)-terephthalamide]?
nucleoside(s) of 23S rRNA crosslinked [1]: C2610, and less to nucleosides A2058 and A2059; toxicity against other types of leukocytes [2]: negligible; time of peak toxicity on neutrophils ([2]; 120 h exposure of blood cells): 48 h; toxicity on neutrophils ([2]; 120 h exposure of blood cells, 30 or 60 μM): mild and transient toxicity; sensitivity of HS-Sultan cells (HS-Sultan cells): insensitive; sensitivity of U937 cells (U937 cells): insensitive

Source: article PMC4533973, “Synthesis and Evaluation of Chloramphenicol Homodimers: Molecular Target, Antimicrobial Activity, and Toxicity against Human Cells” (PLoS ONE, 2015)
